From patent US20240116985A1, “STAPLED PEPTIDES AND METHODS THEREOF” (priority 2020, published 2024)
Converted amounts (≈) assume the structure as drawn. Like-named read-outs stand apart in the source and are kept apart here.

What was measured:
[1] = molecular target: T1, full-length beta-Catenin (Uniprot ID P35222) (Homo sapiens, UniProt P35222); assay: Fluorescence polarization IC50 (beta-catenin / 5FAM-TCF4 10-53 competition); type: binding; settings: fluorescence polarization
T1 construct: 10 nM full-length beta-Catenin (Uniprot ID P35222)
T1 sequence (P35222 1-781): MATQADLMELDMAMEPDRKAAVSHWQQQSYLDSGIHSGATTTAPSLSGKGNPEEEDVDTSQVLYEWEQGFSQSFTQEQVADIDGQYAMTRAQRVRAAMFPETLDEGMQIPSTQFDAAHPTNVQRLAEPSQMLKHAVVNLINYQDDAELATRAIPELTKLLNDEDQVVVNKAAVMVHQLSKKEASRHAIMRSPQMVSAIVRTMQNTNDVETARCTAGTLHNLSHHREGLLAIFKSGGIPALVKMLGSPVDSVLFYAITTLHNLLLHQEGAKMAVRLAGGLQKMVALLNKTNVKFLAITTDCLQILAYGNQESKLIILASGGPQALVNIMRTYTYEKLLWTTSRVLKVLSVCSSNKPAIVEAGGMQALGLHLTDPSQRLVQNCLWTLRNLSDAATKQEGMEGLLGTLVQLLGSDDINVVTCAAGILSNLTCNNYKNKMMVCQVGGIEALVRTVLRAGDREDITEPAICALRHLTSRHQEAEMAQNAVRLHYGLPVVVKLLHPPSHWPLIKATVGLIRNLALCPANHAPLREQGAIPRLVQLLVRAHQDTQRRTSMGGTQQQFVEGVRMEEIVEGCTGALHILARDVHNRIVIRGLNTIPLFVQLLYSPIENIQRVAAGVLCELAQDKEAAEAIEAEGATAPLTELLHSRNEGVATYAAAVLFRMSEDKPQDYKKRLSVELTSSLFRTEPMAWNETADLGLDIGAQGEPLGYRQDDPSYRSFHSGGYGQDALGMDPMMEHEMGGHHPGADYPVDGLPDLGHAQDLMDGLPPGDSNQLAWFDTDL

Solubility in PBS = type: physicochemical
Outline: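 Steps: ultracentrifuge the peptide PBS solution, inject the supernatant on HPLC, inject a 50 μM peptide DMSO solution as reference, then calculate solubility as area ratio (PBS/DMSO) × 50 uM.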

[2] = beta-catenin, read-out: FP EC50

SMILES	IC50 ([1]; read-out: beta-Catenin FP IC50)	Solubility (Solubility in PBS)	IC50 [1, 2]
CC(=O)N1CCC[C@]12CC=CCCCC1(CCCC=CCCCOC(=O)N3CC[C@@](C(=O)N[C@@H](Cc4ccccc4Cl)C(=O)N[C@@H](Cc4csc5ccccc45)C(=O)N[C@H](CO)[C@@H](C)O)(C3)NC(=O)[C@H](CC(C)C)NC(=O)[C@H](Cc3ccccc3)NC(=O)[C@H](C)NC(=O)[C@H](CCCCNC(C)C)NC(=O)[C@H](CC(=O)O)NC(=O)[C@H](CC(=O)O)NC1=O)NC(=O)[C@H](CC(C)(C)C)NC(=O)[C@H](CC(=O)O)NC2=O (stereo partly drawn) [I-1313, Ac-PL3-Asp-Npg-B5-Asp-Asp-iPrLys-Ala-Phe-Leu-PyrS2-2C1F-BztA-Thro1]	0.012 µM	10 µM (≈ 20 µg/mL)	
CC(=O)N1CCC[C@]12CC=CCCCC1(CCCC=CCCCOC(=O)N3CC[C@@](C(=O)N[C@@H](Cc4ccccc4C(F)(F)F)C(=O)N[C@@H](Cc4csc5ccccc45)C(=O)N[C@H](CO)[C@@H](C)O)(C3)NC(=O)[C@H](Cc3ccccc3)NC(=O)[C@H](Cc3ccccc3)NC(=O)[C@H](C)NC(=O)[C@H](C)NC(=O)[C@H](Cc3cccc(C(=O)O)c3)NC(=O)[C@H](CC(=O)O)NC1=O)NC(=O)[C@H](CC(C)(C)C)NC(=O)[C@H](CC(=O)O)NC2=O (stereo partly drawn) [I-1343, Ac-PL3-Asp-Npg-B5-Asp-3COOHF-Ala-Ala-Phe-Phe-PyrS2-2F3MeF-BztA-Thro1]	0.15 µM	10 µM (≈ 20.5 µg/mL)	
CC(C)C[C@@H]1NC(=O)[C@H](Cc2ccccc2)NC(=O)[C@H](C)NC(=O)[C@H](C)NC(=O)[C@H](CC(=O)O)NC(=O)[C@H](CC(=O)O)NC(=O)C2(CCCC=CCCCOC(=O)N3CC[C@@](C(=O)N[C@@H](Cc4ccccc4)C(=O)N[C@@H](Cc4csc5ccccc45)C(=O)N[C@@H](CCC(N)=O)C(N)=O)(C3)NC1=O)CCCC=CC[C@]1(CCCN1C(=O)CCCN(C)C)C(=O)N[C@@H](CC(=O)O)C(=O)N[C@@H](CC(C)(C)C)C(=O)N2 (stereo partly drawn) [I-1358, NdiMeButC-PL3-Asp-Npg-B5-Asp-Asp-Ala-Ala-Phe-Leu-PyrS2-Phe-BztA-Gln-NH2]	0.019 µM	10 µM (≈ 19.8 µg/mL)	0.019 µM
CC(C)C[C@@H]1NC(=O)[C@H](Cc2ccccc2)NC(=O)[C@H](C)NC(=O)[C@H](C)NC(=O)[C@H](CC(=O)O)NC(=O)[C@H](CC(=O)O)NC(=O)C2(CCCC=CCCCOC(=O)N3CC[C@@](C(=O)N[C@@H](Cc4ccccc4)C(=O)N[C@@H](Cc4csc5ccccc45)C(=O)N[C@@H](CCC(N)=O)C(N)=O)(C3)NC1=O)CCCC=CC[C@]1(CCCN1C(=O)CCCN(C)C)C(=O)N[C@@H](CC(=O)O)C(=O)N[C@@H](CC(C)(C)C)C(=O)N2 (stereo partly drawn) [I-1359, NdiMeButC-PL3-Asp-Npg-B5-Asp-Asp-Ala-Ala-Phe-Leu-PyrS2-Phe-BztA-Gln-NH2]	0.088 µM	34 µM (≈ 67.4 µg/mL)	0.088 µM
CC(=O)N1CCC[C@]12CC=CCCCC1(CCCC=CCCCOC(=O)N3CC[C@@](C(=O)N[C@@H](Cc4ccccc4)C(=O)N[C@@H](Cc4csc5ccccc45)C(=O)N[C@@H](CCC(N)=O)C(N)=O)(C3)NC(=O)[C@H](CC(C)C)NC(=O)[C@H](Cc3ccccc3)NC(=O)[C@H](C)NC(=O)[C@H](CCCCNC(C)C)NC(=O)[C@H]([C@@H](C)O)NC(=O)[C@H](CC(N)=O)NC1=O)NC(=O)[C@H](C)NC(=O)[C@H](CC(=O)O)NC2=O (stereo partly drawn) [I-1376, Ac-PL3-Asp-Ala-B5-Asn-Thr-iPrLys-Ala-Phe-Leu-PyrS2-Phe-BztA-Gln-NH2]	4.21 µM	10 µM (≈ 19.4 µg/mL)	
CC(=O)N1CCC[C@]12CC=CCCCC1(CCCC=CCCCOC(=O)N3CC[C@@](C(=O)N[C@@H](Cc4ccccc4)C(=O)N[C@@H](Cc4csc5ccccc45)C(=O)N[C@@H](CCCCN)C(N)=O)(C3)NC(=O)[C@H](CC(C)C)NC(=O)[C@H](Cc3ccccc3)NC(=O)[C@H](C)NC(=O)[C@H](CCCCNC(C)C)NC(=O)[C@H]([C@@H](C)O)NC(=O)[C@H](CC(N)=O)NC1=O)NC(=O)[C@H](C)NC(=O)[C@H](CC(=O)O)NC2=O (stereo partly drawn) [I-1377, Ac-PL3-Asp-Ala-B5-Asn-Thr-iPrLys-Ala-Phe-Leu-PyrS2-Phe-BztA-Lys-NH2]	1 µM	10 µM (≈ 19.4 µg/mL)	
CC(=O)N1CCC[C@]12CC=CCCCC1(CCCC=CCCCOC(=O)N3CC[C@@](C(=O)N[C@@H](Cc4ccccc4)C(=O)N[C@@H](Cc4csc5ccccc45)C(=O)N[C@H](C(N)=O)[C@@H](C)O)(C3)NC(=O)[C@H](CC(C)C)NC(=O)[C@H](Cc3ccccc3)NC(=O)[C@H](C)NC(=O)[C@H](CCCCNC(C)C)NC(=O)[C@H]([C@@H](C)O)NC(=O)[C@H](CC(N)=O)NC1=O)NC(=O)[C@H](C)NC(=O)[C@H](CC(=O)O)NC2=O (stereo partly drawn) [I-1378, Ac-PL3-Asp-Ala-B5-Asn-Thr-iPrLys-Ala-Phe-Leu-PyrS2-Phe-BztA-Thr-NH2]	6.17 µM	10 µM (≈ 19.1 µg/mL)	
CC(=O)N1CCC[C@]12CC=CCCCC1(CCCC=CCCCOC(=O)N3CC[C@@](C(=O)N[C@@H](Cc4ccccc4)C(=O)N[C@@H](Cc4csc5ccccc45)C(=O)N[C@@H](CCC(N)=O)C(N)=O)(C3)NC(=O)[C@H](CC(C)C)NC(=O)[C@H](Cc3ccccc3)NC(=O)[C@H](C)NC(=O)[C@H](CCCCNC(C)C)NC(=O)[C@H](CCC(N)=O)NC(=O)[C@H](CC(N)=O)NC1=O)NC(=O)[C@H](C)NC(=O)[C@H](CC(=O)O)NC2=O (stereo partly drawn) [I-1379, Ac-PL3-Asp-Ala-B5-Asn-Gln-iPrLys-Ala-Phe-Leu-PyrS2-Phe-BztA-Gln-NH2]	1.44 µM	10 µM (≈ 19.7 µg/mL)	
CC(=O)N1CCC[C@]12CC=CCCCC1(CCCC=CCCCOC(=O)N3CC[C@@](C(=O)N[C@@H](Cc4ccccc4)C(=O)N[C@@H](Cc4csc5ccccc45)C(=O)N[C@@H](CCC(N)=O)C(N)=O)(C3)NC(=O)[C@H](CC(C)C)NC(=O)[C@H](Cc3ccccc3)NC(=O)[C@H](C)NC(=O)[C@H](CCCCNC(C)C)NC(=O)[C@H]([C@@H](C)O)NC(=O)[C@H](CC(=O)O)NC1=O)NC(=O)[C@H](C)NC(=O)[C@H](CC(N)=O)NC2=O (stereo partly drawn) [I-1382, Ac-PL3-Asn-Ala-B5-Asp-Thr-iPrLys-Ala-Phe-Leu-PyrS2-Phe-BztA-Gln-NH2]	2.85 µM	10 µM (≈ 19.4 µg/mL)	
CC(=O)N1CCC[C@]12CC=CCCCC1(CCCC=CCCCOC(=O)N3CC[C@@](C(=O)N[C@@H](Cc4ccccc4)C(=O)N[C@@H](Cc4csc5ccccc45)C(=O)N[C@@H](CCCCN)C(N)=O)(C3)NC(=O)[C@H](CC(C)C)NC(=O)[C@H](Cc3ccccc3)NC(=O)[C@H](C)NC(=O)[C@H](CCCCNC(C)C)NC(=O)[C@H]([C@@H](C)O)NC(=O)[C@H](CC(=O)O)NC1=O)NC(=O)[C@H](C)NC(=O)[C@H](CC(N)=O)NC2=O (stereo partly drawn) [I-1383, Ac-PL3-Asn-Ala-B5-Asp-Thr-iPrLys-Ala-Phe-Leu-PyrS2-Phe-BztA-Lys-NH2]	1.66 µM	10 µM (≈ 19.4 µg/mL)	
CC(=O)N1CCC[C@]12CC=CCCCC1(CCCC=CCCCOC(=O)N3CC[C@@](C(=O)N[C@@H](Cc4ccccc4)C(=O)N[C@@H](Cc4csc5ccccc45)C(=O)N[C@@H](CCC(N)=O)C(N)=O)(C3)NC(=O)[C@H](CC(C)C)NC(=O)[C@H](Cc3ccccc3)NC(=O)[C@H](C)NC(=O)[C@H](CCCCNC(C)C)NC(=O)[C@H](CCC(N)=O)NC(=O)[C@H](CC(=O)O)NC1=O)NC(=O)[C@H](C)NC(=O)[C@H](CC(N)=O)NC2=O (stereo partly drawn) [I-1385, Ac-PL3-Asn-Ala-B5-Asp-Gln-iPrLys-Ala-Phe-Leu-PyrS2-Phe-BztA-Gln-NH2]	1.08 µM	10 µM (≈ 19.7 µg/mL)	
CC(=O)N1CCC[C@]12CC=CCCCC1(CCCC=CCCCOC(=O)N3CC[C@@](C(=O)N[C@@H](Cc4ccccc4)C(=O)N[C@@H](Cc4csc5ccccc45)C(=O)N[C@@H](CCC(N)=O)C(N)=O)(C3)NC(=O)[C@H](CC(C)C)NC(=O)[C@H](Cc3ccccc3)NC(=O)[C@H](C)NC(=O)[C@H](CCCCNC(C)C)NC(=O)[C@H](CCCCN)NC(=O)[C@H](CC(=O)O)NC1=O)NC(=O)[C@H](C)NC(=O)[C@H](CC(N)=O)NC2=O (stereo partly drawn) [I-1386, Ac-PL3-Asn-Ala-B5-Asp-Lys-iPrLys-Ala-Phe-Leu-PyrS2-Phe-BztA-Gln-NH2]	2.25 µM	10 µM (≈ 19.7 µg/mL)	
CC(=O)N1CCC[C@]12CC=CCCCC1(CCCC=CCCCOC(=O)N3CC[C@@](C(=O)N[C@@H](Cc4ccccc4)C(=O)N[C@@H](Cc4ccc5ccccc5c4)C(=O)N[C@@H](CCC(N)=O)C(N)=O)(C3)NC(=O)[C@H](CC(C)C)NC(=O)[C@H](Cc3ccccc3)NC(=O)[C@H](C)NC(=O)[C@H](CCCCNC(C)C)NC(=O)[C@H]([C@@H](C)O)NC(=O)[C@H](CC(=O)O)NC1=O)NC(=O)[C@H](C)NC(=O)[C@H](CC(N)=O)NC2=O (stereo partly drawn) [I-1387, Ac-PL3-Asn-Ala-B5-Asp-Thr-iPrLys-Ala-Phe-Leu-PyrS2-Phe-2NapA-Gln-NH2]	6.94 µM	10 µM (≈ 19.3 µg/mL)	
